pIC50: −log10 of the molar value. Where a SMILES comes first, the peptide text is derived from it. [ ]: non-standard residue; d: D form. The star is where a group is joined. X1 = CC(C)C[C@@H](CN[C@@H](CC(C)C)C(N)=O)N*; pGlu = O=C1CC[C@@H](C(=O)O)N1
Tests used:
[1] = target: T1, bombesin receptors of mouse colon cancer (MC-26) cells (Mus musculus, UniProt P21729); test: 125I-GRP binding to MC-26 tumor membranes; details: 20 pM 125I-GRP
T1 construct: endogenous in cells; host or cells: MC-26 mouse colon carcinoma (tumour membranes)
Method: The bombesin analog BIM-26147 was tested for the ability to inhibit growth of the mouse colon tumor MC-26.
(§1) For both FIGS. 1 and 2, aliquots of tumor membranes (150 μg protein) were incubated with 20 pM of ^125 I-GRP in the presence of increasing concentrations of peptides, and the displacement of specifically bound ^125 I-GRP to MC-26 tumor membranes by increasing concentrations of peptides is presented as a percent of maximum specific binding of ^125 I-GRP. Each data point is the mean of two observations within an experiment, and represents two experiments. Table 1 presents the IC50 for ^125 I-GRP binding to mouse colon cancer (MC-26) cells and normal colon mucosal cells in the presence of bombesin receptor antagonists. The data in Table 1 was calculated from FIGS. 1 and 2. The fold difference is relative to bombesin (BBS) values.

[2] = target: T2, bombesin receptors of normal mouse colon mucosal membranes (Mus musculus, UniProt P21729); test: 125I-GRP binding to normal mouse colon mucosal membranes; details: 20 pM 125I-GRP
T2 construct: from tissue; host or cells: normal mouse colon mucosa (membranes)
Method: as §1

CX-5 human colon tumor = test: CX-5 human colon tumor, 11-day subrenal capsule assay (SRCA); type: in vivo; details: tumor-bearing athymic nude mice, both CX-5 tests (Tables 2 and 3)
Description: The human colon tumor used for testing was the CX-5 tumor, which was surgically removed from a human and carried as an implant in athymic nude mice. The patient had been untreated prior to surgical removal of the tissue specimen. […] CX-5 was a moderately well-differentiated, mucin secreting adenocarcinoma. The tumor is arranged in acini lined by one or more layers of lining cells which have round to oval vesicular nuclei containing prominent nucleoli. There are frequent mitoses, and the cells have eosinophilic cytoplasm. The acini contain abundant amounts of mucin.
We briefly describe subrenal capsule assay as follows. Tumors, 6-15 mm in diameter, were removed from the athymic mice and immediately placed in RPMI medium (Gibco, Grand Island, N.Y.) at room temperature. In the case of the larger tumors (over 10 mm in diameter), where the central parts frequently contained necrotic tissue, viable tissue was dissected out and placed in a separate Petri dish. The tissue pieces, while immersed in the medium, were cut with scalpels into cubes of approximately 1 mm.
Nude mice were anesthetized by i.p. injection of chloral hydrate (0.35-0.45 ml of a 0.22M solution). A shallow incision was made in the left flank and the kidney was exteriorized. […] Immediately after implantation,the tumor size was measured as described below. […]

T2 sequence (P21729 whole entry): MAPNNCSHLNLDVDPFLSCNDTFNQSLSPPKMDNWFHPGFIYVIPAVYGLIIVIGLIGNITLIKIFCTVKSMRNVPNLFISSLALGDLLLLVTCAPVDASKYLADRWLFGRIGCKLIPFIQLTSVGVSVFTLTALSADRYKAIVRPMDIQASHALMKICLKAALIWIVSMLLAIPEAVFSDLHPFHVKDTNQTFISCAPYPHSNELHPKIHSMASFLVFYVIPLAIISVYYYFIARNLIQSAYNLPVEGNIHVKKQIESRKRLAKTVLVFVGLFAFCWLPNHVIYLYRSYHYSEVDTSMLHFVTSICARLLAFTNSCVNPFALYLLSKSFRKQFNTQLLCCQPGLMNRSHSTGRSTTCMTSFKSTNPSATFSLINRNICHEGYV
T1 sequence (P21729 whole entry): as above

| pIC50 [1] | pIC50 [2] | Structure (SMILES) | effect on body weight (CX-5 human colon tumor) |
| --- | --- | --- | --- |
| 8.35 | 8.80 | CCCNC(=O)[C@H](CC(C)C)NC(=O)[C@H](Cc1cnc[nH]1)NC(=O)CNC(=O)[C@@H](NC(=O)[C@H](C)NC(=O)[C@H](Cc1c[nH]c2ccccc12)NC(=O)[C@H](CCC(N)=O)NC(=O)[C@H](N)Cc1ccccc1)C(C)C [BIM-26147, D-Phe-Gln-Trp-Ala-Val-Gly-His-Leu-propylamide] | – |
| – | – | CC(C)C[C@@H](CN[C@@H](Cc1ccccc1)C(N)=O)NC(=O)[C@H](Cc1c[nH]cn1)NC(=O)CNC(=O)[C@@H](NC(=O)[C@H](C)NC(=O)[C@H](Cc1c[nH]c2ccccc12)NC(=O)[C@H](CCC(N)=O)NC(=O)[C@H](N)Cc1ccc(Cl)cc1)C(C)C [BIM-26159, D-Cpa-Gln-Trp-Ala-Val-Gly-His-Leu.psi.[CH2 NH]Phe-NH2] | no measurable effect on body weight |
| 7.10 | 7.82 | CC(C)C[C@@H](CN[C@@H](CC(C)C)C(N)=O)NC(=O)[C@H](Cc1cnc[nH]1)NC(=O)CNC(=O)[C@@H](NC(=O)[C@H](C)NC(=O)[C@H](Cc1c[nH]c2ccccc12)NC(=O)[C@H](CCC(N)=O)NC(=O)[C@H](CC(N)=O)NC(=O)CNC(=O)[C@H](CC(C)C)NC(=O)[C@H](CCCN=C(N)N)NC(=O)[C@H](CCC(N)=O)NC(=O)[C@@H]1CCC(=O)N1)C(C)C [Leu^13 --.psi.(CH2,NH)--Leu^14 --BBS, Leu^13 .psi.[CH2 NH]Leu^14 bombesin] ([pGlu]QRLGNQWAVGH-X1) | – |

— US5736517A, “Treatment of cancer with peptides” (Biomeasure, Inc., priority 1993, dated 1998)
